Activity calls are given as the source filed them.
Experiments:
[1] = inhibitors of intracellular T. cruzi replication, confirmation, NIH3T3 host cells, beta-gal luminescence (AID 2044); type: functional, cell-based;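 also: intracellular parasites grown in NIH/3T3 mouse fibroblasts as host cells; luminescent beta-galactosidase reporter signal from transgenic T. cruzi replicating inside host cells; inhibitors lower the luminescence signal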
[2] = cytotoxicity toward NIH3T3 fibroblasts, dose response, counter-screen, cell-based, ATP luminescence, mouse fibroblasts (AID 2010); type: functional;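 also: cells exposed to compound for about 90 hours before reading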
[3] = biological target: Cysteine protease ATG4B (Homo sapiens, UniProt Q9Y4P1); type: functional;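 also: Fluorescence-based dose-response confirmation assay measuring inhibition of ATG4B activity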
[4] = biological target: Phospholipase A2 (Homo sapiens, UniProt P04054); type: functional;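 also: confirmatory dose-response counterscreen on phospholipase A2, testing hits that came from an ultra-high-throughput screen for ATG4B inhibitors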
[5] = inhibitors of firefly luciferase expression or activity, dose response, H4 neuroglioma cells, luminescence (AID 1990); type: functional, cell-based
[6] = Luminescence Cell-Based Dose Response HTS to Identify Inhibitors of 5'UTR Stem-Loop Driven Prion Protein mRNA Translation in H4 Neuroglioblastoma Cells. [Related pubchem assays: 1827 (Project Summary), 1813 (Primary HTS)]; type: functional
[7] = inhibitors of SNCA 5'UTR-driven reporter translation, confirmation, H4 neuroglioma cells, luminescence (AID 1988); type: functional, cell-based
[8] = Luminescence-based counterscreen assay for KLF5 inhibitors: dose response cell-based high throughput screening assay to identify cytotoxic compounds using the IEC-6 intestinal epithelial cell line. [Related pubchem assays: 1700 (Primary screen.), 1834 (Confirmation screen.), 1858 (Summary AID.), 1905 (Counterscreen.)]; type: functional
[9] = biological target: T1, Microphthalmia-associated transcription factor (Homo sapiens, UniProt O75030); assay: TRPM1 promoter luciferase signal decrease, dose response, MITF inhibitor project, cell-based, SK-MEL-5, cherry-picked, set 3 (AID 493073); type: functional
T1 sequence (O75030 whole entry): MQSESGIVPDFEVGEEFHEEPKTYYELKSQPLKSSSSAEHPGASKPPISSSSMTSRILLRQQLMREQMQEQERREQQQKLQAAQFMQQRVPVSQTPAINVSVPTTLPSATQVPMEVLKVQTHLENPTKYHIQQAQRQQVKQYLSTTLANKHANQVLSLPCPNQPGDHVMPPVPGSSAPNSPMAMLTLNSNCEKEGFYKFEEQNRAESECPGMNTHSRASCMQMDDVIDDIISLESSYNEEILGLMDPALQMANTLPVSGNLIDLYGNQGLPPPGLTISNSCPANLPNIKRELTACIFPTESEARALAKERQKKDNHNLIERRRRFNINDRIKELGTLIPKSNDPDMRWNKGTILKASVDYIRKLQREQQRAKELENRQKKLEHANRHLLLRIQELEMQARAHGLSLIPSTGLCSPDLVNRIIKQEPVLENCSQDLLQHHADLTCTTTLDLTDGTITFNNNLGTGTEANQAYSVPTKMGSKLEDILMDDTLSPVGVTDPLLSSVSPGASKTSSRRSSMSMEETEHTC

[10] = cytotoxicity in HEK-293T cells, dose response, cytotoxicity control for BCR NF-kB inhibitor project, luminescence, B-cell screen hits (AID 489021); type: functional, cell-based;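 also: HEK-293T cells carrying an NF-kB luciferase reporter; cells exposed to compound for about 14 hours before viability readout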
[11] = test system: Jurkat; assay: SAR Analysis of small molecule inhibitors of […] specific antigen receptor-induced NF-kB activation in a Jurkat cell line using a luminescence assay - Set 3. [Related pubchem assays (depositor defined):AID435022, AID435025, AID465]; type: functional, cell-based; settings: Homo sapiens
[12] = test system: HEK293; assay: SAR Analysis of small molecule inhibitors of B-cell specific antigen receptor-induced NF-kB activation in a HEK-293T cell line using a luminescence assay - Set 2. [Related pubchem assays (depositor defined):AID435022, AID435025, AID489021]; type: functional, cell-based; settings: Homo sapiens
[13] = test system: HEK293; assay: cytotoxicity in HEK293T NF-kB-Luc cells, SAR follow-up, cytotoxicity control for NF-kB activator project, cell-based, resazurin fluorescence (AID 493251); type: functional; settings: Homo sapiens
[14] = test system: A-375; assay: MITF: Counter assay: A375 proliferation Measured in Cell-Based System Using Plate Reader - 2084-03_Inhibitor_Dose_DryPowder_Activity. [Related pubchem assays (depositor defined):AID488944]; type: functional; settings: Homo sapiens
[15] = test system: A-375; assay: A375 melanoma cell viability reduction, dose response, counter-screen for MITF modulator project, cherry-pick samples, set 2 (AID 540335); type: functional, cell-based; settings: Homo sapiens
[16] = inhibitors of HIV Env-driven cell fusion, dose response, cherry-pick (AID 652057); type: functional, cell-based
[17] = ZM109 Env clade C HIV-1 fusion inhibitors, dose response, HeLa effector, CEM target cells, luciferase, cherry-pick (AID 652058); type: functional, cell-based
[18] = inhibitors of clade B AD8 Env fusion, dose response, cell-based, cherry-pick (AID 652062); type: functional;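 also: luciferase signal from cell-cell fusion driven by HIV-1 clade B AD8 Env; potency is for inhibitors of fusion seen as a drop in luminescence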
[19] = luciferase signal loss, tTA control fusion, HeLa F-luc tTA cells, dry powder, counter-screen for HIV Env fusion inhibitor project, dose response (AID 687021); type: functional, cell-based
[20] = CEM21 cell cytotoxicity, dose response, cytotoxicity control, plate reader, dry powder (AID 687026); type: functional, cell-based
[21] = Luminescence Cell-Based Dose Confirmation HTS to Identify Inhibitors of Polyadenylation.; type: functional
[22] = test system: Vero; assay: Vero cell cytotoxicity, cytotoxicity control for flavivirus capping enzyme inhibitors (AID 588742); type: functional; settings: Chlorocebus sabaeus
[23] = biological target: Genome polyprotein (dengue virus type 2, UniProt P29990); assay: Dengue-2 NS5 methyltransferase inhibitors, primary screen, biochemical, confirmation dose response (AID 588689); type: functional
[24] = biological target: T2, Corticotropin-releasing factor receptor 2/Corticotropin-releasing factor-binding protein (Homo sapiens, UniProt P24387+Q13324); assay: Dose Response confirmation of uHTS hits for small molecule antagonists of the CRF-binding protein and CRF-R2 receptor complex.; type: functional; settings: read-out: IC50_Mean
T2 sequence (Q13324 whole entry): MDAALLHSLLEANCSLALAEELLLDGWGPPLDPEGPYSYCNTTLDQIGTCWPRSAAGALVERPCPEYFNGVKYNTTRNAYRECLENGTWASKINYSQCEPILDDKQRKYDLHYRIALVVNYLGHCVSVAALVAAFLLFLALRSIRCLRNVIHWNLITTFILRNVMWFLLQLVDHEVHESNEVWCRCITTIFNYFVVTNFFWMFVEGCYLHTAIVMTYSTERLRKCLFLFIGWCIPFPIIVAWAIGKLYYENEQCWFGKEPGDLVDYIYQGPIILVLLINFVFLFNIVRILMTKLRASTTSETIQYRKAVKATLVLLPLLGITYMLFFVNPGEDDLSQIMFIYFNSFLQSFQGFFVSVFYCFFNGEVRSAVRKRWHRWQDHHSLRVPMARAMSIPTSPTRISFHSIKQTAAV
T2 sequence (P24387 whole entry): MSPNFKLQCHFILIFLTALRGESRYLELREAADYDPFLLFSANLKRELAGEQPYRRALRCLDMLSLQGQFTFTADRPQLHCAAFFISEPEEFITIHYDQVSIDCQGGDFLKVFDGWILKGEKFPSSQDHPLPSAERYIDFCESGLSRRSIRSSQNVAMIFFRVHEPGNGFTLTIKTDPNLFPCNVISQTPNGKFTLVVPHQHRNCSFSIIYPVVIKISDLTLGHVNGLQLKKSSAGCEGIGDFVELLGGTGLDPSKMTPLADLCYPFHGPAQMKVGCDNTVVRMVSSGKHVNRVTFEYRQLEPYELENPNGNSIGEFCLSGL

[25] = biological target: T2, Corticotropin-releasing factor receptor 2/Corticotropin-releasing factor-binding protein; assay: activators of CRF receptor 2 with binding protein – uHTS hits, confirmation (AID 602473); type: functional; settings: read-out: EC50_Mean
[26] = CRF-BP/CRF-R2 complex antagonists, dose response, cell-based, uHTS hits, 384-well (AID 651639); type: functional, Homo sapiens; settings: read-out: IC50_Mean
[27] = biological target: 1-acylglycerol-3-phosphate O-acyltransferase ABHD5/Perilipin-5 (Homo sapiens, UniProt Q00G26+Q8WTS1); assay: Luminescence-based biochemical high throughput dose response assay for inhibitors of the interaction of the lipase co-activator protein, abhydrolase domain containing 5 (ABHD5) with perilipin-5 (MLDP; PLIN5) (2K validation set). [Related pubchem assays (depositor defined):AID493035, AID493241]
[28] = biological target: Perilipin-1/ABHD5 (Homo sapiens, UniProt O60240+Q8WTS1); assay: Luminescence-based biochemical high throughput dose response assay for inhibitors of the interaction of the lipase co-activator protein, abhydrolase domain containing 5 (ABHD5) with perilipin-1 (PLIN1) (2K validation set). [Related pubchem assays (depositor defined):AID493027, AID493057]
[29] = biological target: Protein-arginine deiminase type-4 (Homo sapiens, UniProt Q9UM07); assay: human PAD4 inhibitor potency, dose response, biochemical, fluorescence readout (AID 492970)
[30] = biological target: T3, Replicative DNA helicase DnaB (Mycobacterium tuberculosis, UniProt P9WMR3); assay: DnaB intein splicing inhibitors, dose response, biochemical, cell-free fluorescence (AID 449749); type: functional
T3 sequence (P9WMR3 whole entry): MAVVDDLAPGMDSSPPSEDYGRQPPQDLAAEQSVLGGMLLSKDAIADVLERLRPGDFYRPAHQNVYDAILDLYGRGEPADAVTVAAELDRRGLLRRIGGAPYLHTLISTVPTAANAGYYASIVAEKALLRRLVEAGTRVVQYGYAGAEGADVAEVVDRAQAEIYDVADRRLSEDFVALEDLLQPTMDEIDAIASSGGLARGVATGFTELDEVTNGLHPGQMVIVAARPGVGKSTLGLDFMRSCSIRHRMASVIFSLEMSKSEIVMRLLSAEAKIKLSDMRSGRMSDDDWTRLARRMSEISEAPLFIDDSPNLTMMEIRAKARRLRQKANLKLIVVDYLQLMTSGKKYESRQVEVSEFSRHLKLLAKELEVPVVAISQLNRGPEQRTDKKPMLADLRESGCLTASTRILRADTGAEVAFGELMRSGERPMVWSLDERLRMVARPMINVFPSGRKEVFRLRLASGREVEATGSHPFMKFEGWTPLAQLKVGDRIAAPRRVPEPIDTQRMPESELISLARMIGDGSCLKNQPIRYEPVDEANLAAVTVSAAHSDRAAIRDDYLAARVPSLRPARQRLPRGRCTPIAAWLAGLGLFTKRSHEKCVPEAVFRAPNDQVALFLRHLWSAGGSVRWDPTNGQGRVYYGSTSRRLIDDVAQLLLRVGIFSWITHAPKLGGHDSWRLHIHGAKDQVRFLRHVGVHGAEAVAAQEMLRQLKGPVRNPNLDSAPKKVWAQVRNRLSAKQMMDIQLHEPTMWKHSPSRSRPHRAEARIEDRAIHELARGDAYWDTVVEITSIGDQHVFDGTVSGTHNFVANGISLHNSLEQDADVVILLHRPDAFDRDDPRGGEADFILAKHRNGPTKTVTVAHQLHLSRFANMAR

[31] = biological target: T4, Protein RecA (Mycobacterium tuberculosis, UniProt P9WHJ3); assay: Fluorescence Cell-Free Homogeneous Dose Retest to Identify Inhibitors of RecA-Intein Splicing Activity. [Related pubchem assays (depositor defined):AID2097, AID2223, AID489010, AID492950]; type: functional
T4 sequence (P9WHJ3 whole entry): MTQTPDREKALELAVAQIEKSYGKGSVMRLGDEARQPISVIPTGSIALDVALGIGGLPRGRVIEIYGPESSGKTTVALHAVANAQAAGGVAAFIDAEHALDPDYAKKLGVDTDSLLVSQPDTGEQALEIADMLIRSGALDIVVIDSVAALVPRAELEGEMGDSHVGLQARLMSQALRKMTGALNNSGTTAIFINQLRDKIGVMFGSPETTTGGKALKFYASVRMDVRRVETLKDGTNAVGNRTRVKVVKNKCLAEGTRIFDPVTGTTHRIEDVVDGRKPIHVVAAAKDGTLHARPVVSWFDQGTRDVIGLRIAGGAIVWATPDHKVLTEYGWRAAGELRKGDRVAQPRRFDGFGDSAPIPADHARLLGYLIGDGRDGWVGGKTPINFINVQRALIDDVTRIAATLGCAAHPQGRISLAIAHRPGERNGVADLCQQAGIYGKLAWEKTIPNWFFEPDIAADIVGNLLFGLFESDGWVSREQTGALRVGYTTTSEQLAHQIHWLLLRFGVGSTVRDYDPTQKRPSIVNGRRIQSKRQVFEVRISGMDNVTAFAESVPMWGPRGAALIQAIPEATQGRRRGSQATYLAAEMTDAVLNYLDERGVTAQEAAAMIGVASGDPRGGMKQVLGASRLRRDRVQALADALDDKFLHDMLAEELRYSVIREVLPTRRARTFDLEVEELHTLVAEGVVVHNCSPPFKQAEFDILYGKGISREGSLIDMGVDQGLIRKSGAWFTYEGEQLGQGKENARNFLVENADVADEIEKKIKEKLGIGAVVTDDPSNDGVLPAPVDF

[32] = biological target: Voltage-gated inwardly rectifying potassium channel KCNH2 (Homo sapiens, UniProt Q12809); settings: Potency;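 also: confirmatory quantitative high-throughput screen measuring inhibition of hERG channel activity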
Chain of Voltage-gated inwardly rectifying potassium channel KCNH2 (Q12809 whole entry): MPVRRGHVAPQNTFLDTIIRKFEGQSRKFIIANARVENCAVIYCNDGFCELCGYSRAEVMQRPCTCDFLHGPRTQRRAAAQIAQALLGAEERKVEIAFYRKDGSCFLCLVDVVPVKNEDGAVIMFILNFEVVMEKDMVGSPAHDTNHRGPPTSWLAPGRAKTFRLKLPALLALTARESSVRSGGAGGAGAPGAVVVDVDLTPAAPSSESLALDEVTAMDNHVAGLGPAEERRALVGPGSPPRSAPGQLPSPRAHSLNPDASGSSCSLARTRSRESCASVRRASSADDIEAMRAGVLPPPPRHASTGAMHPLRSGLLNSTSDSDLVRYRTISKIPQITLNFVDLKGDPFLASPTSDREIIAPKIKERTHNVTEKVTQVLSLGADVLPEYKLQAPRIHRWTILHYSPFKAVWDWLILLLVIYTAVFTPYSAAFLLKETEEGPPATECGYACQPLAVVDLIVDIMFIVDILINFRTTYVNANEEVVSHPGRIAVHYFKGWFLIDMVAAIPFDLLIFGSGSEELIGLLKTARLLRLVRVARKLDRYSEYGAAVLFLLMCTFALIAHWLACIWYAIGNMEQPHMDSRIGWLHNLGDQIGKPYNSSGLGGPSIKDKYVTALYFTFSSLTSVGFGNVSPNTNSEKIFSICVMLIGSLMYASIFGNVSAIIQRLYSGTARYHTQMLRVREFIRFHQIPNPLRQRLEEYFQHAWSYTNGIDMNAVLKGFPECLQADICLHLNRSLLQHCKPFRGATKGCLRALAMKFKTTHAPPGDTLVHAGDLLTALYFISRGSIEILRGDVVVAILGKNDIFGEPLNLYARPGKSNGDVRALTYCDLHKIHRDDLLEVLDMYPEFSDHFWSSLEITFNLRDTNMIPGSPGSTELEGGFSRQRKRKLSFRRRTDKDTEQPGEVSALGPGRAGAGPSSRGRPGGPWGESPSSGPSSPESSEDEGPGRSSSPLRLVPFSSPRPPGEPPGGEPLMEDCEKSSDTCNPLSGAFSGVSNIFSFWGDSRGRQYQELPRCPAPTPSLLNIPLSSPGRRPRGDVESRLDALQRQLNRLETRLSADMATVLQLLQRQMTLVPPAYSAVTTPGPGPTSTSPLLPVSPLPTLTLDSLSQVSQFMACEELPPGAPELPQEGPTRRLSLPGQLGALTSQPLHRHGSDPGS

Chain of 1-acylglycerol-3-phosphate O-acyltransferase ABHD5/Perilipin-5 (Q00G26 whole entry, the tested form may be a part): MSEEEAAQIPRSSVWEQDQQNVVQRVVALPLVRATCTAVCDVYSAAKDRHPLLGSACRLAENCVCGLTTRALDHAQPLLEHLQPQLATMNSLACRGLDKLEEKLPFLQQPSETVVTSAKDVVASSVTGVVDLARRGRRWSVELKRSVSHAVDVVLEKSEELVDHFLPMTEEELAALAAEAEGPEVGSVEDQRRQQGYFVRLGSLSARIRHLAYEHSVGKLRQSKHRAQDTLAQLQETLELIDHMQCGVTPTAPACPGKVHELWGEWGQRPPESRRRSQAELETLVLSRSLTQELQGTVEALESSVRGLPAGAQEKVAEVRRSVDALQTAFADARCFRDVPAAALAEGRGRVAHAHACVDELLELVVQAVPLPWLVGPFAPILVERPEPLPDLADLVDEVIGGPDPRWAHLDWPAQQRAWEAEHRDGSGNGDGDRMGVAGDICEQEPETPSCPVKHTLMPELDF
Chain of 1-acylglycerol-3-phosphate O-acyltransferase ABHD5/Perilipin-5 (Q8WTS1 whole entry, the tested form may be a part): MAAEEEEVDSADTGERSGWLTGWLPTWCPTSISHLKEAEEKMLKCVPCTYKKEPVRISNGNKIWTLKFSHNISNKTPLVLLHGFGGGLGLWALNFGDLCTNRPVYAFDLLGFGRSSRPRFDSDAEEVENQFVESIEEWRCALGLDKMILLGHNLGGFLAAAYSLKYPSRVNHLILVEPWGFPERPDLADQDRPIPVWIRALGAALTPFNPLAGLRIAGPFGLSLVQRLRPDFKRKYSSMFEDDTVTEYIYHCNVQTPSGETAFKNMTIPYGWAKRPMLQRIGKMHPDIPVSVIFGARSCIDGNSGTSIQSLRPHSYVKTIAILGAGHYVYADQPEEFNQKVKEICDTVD
Chain of Cysteine protease ATG4B (Q9Y4P1 whole entry): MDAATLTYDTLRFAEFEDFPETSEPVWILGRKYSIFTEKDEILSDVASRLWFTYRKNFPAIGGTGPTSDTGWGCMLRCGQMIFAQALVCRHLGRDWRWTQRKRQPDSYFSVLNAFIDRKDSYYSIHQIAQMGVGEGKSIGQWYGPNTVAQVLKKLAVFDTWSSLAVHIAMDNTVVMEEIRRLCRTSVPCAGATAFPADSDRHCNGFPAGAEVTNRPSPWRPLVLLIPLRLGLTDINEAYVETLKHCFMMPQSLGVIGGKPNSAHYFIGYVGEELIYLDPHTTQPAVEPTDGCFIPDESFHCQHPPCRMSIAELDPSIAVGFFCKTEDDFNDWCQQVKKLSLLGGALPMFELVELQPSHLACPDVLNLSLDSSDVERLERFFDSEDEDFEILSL
Chain of Phospholipase A2 (P04054 whole entry): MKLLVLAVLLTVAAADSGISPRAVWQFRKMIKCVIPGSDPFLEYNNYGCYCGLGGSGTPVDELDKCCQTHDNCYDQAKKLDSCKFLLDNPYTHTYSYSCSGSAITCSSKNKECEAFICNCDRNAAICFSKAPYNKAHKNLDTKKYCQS
Chain of Protein-arginine deiminase type-4 (Q9UM07 whole entry): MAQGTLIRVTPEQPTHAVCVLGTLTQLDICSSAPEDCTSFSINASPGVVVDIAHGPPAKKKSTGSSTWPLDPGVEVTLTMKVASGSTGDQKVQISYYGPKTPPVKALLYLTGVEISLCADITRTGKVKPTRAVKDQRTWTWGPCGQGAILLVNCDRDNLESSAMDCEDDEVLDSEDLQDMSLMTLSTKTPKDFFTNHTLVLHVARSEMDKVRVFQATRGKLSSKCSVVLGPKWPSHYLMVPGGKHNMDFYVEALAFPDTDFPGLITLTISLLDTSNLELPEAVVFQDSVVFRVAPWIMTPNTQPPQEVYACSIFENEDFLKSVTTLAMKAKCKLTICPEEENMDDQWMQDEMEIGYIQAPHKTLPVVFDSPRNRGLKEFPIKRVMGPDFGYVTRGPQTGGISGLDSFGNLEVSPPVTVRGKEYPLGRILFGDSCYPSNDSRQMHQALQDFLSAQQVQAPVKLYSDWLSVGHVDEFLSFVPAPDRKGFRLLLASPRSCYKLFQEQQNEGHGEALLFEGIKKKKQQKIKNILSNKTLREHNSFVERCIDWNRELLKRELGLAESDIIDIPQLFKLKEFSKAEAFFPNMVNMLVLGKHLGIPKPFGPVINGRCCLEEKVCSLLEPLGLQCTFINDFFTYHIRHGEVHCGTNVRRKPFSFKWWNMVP
Chain of Perilipin-1/ABHD5 (Q8WTS1 whole entry, the tested form may be a part): as the sequence (Q8WTS1 whole entry, the tested form may be a part) above
Chain of Perilipin-1/ABHD5 (O60240 whole entry, the tested form may be a part): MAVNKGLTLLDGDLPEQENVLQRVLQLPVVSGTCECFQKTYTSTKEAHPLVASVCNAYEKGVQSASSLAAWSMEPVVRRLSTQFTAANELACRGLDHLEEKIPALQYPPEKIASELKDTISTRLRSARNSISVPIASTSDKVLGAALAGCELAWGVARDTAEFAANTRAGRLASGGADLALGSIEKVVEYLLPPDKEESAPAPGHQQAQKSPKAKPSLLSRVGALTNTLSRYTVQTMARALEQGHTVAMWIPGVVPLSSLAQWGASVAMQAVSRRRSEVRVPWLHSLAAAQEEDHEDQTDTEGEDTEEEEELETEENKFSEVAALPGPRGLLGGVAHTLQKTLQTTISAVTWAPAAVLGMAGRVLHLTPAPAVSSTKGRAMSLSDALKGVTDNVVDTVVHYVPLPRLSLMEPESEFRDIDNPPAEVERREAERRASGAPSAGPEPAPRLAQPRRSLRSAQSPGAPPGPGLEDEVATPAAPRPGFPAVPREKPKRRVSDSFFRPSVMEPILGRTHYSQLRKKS
Chain of Genome polyprotein (P29990 2492-3391 limits assumed): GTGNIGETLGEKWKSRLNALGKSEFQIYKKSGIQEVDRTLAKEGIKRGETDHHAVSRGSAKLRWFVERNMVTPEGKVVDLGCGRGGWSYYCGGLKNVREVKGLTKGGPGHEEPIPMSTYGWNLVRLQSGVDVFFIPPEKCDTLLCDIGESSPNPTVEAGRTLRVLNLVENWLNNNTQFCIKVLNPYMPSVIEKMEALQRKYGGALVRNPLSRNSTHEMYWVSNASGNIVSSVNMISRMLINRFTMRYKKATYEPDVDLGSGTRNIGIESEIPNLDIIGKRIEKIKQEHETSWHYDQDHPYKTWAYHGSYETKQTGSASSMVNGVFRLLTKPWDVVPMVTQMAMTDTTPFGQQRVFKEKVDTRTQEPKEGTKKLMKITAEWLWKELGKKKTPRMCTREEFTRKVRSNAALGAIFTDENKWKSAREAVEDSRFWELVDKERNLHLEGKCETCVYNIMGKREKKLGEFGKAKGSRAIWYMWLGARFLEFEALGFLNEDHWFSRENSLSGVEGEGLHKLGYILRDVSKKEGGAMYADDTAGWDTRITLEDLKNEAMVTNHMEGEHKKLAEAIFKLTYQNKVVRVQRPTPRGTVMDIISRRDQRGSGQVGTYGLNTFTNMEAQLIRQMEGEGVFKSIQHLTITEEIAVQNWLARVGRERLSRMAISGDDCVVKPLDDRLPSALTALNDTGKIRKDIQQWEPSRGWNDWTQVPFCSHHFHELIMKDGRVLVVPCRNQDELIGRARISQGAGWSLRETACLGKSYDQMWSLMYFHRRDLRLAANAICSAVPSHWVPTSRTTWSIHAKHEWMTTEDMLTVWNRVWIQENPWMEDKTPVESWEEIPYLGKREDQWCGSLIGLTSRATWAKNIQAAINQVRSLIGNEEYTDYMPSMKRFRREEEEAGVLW

## CC(C)C[C@H](NC(=O)OC(C)(C)C)C(=O)N/N=C/C1=Cc2ccccc2OC1C (some centres not stated)
[1]
  EC50: 3.34 µM (active)
[2]
  EC50: > 60 µM (not active)
[3]
  IC50: 37.1 µM (inactive)
[4]
  IC50: 15.4 µM (active)

## CC(C)(C)c1ccc(-c2noc(CCC(=O)NCC3CCCO3)n2)cc1 (configuration not stated)
[5]
  EC50: < 0.1 µM (active)
[6]
  EC50: 9.11 µM (active)
[7]
  EC50: 0.152 µM (active)
[8]
  IC50: > 39.8 µM (not active)
[9]
  AC50: 0.275 µM (active)
[10]
  IC50: > 80 µM (inactive)
[11]
  IC50: 13.4 µM (active)
[12]
  IC50: 1.54 µM (active)
[13]
  IC50: 70.9 µM (inactive)
[14]
  AC50: > 35 µM (active)
[15]
  AC50: > 35 µM (active)
[16]
  AC50: 0.359 µM (active)
[17]
  AC50: 0.293 µM (active)
[18]
  AC50: < 0.26 µM (active)
[19]
  AC50: 67.1 µM (active)
[20]
  AC50: > 70 µM (inactive)

## O=C1S/C(=C\c2ccc(O)c([N+](=O)[O-])c2)C(=O)N1c1ccccc1Cl
[21]
  EC50: > 120 µM (not active)
[22]
  CC50: > 40 µM (active)
[23]
  IC50: 40.6 µM (active)
[24]
  IC50: 24.4 µM (active)
[25]
  EC50: > 53 µM (inactive)
[26]
  IC50: > 20 µM (inactive)

## Cc1ccc(S(=O)(=O)N[C@@H](Cc2ccccc2)C(=O)CCl)cc1 [TPCK]
[27]
  IC50: 1.9 µM (active)
[28]
  IC50: 1.87 µM (active)
[29]
  IC50: 13 µM (inactive)
[30]
  AC50: 2.03 µM (active)
[31]
  EC50: 0.712 µM (active)
[32]
  AC50: 12.6 µM (inconclusive)
